The nature of the data set: Solubility in p-xylene at room temperature (25° C.), visual complete dissolution. It is filed as physicochemical. As for the experimental part: Solubility was evaluated by completely dissolving compound (101) visually by adding p-xylene at room temperature (25° C.).

Turning to `c1ccc(-c2ccc3cc4cc(-c5ccccc5)ccc4cc3c2)cc1` [Compound (C101), reference compound], the Solubility of compound is <0.1 (which cannot accurately be wt %. The value for `CCCCCCCCCCc1ccc2cc3cc(-c4ccccc4)ccc3cc2c1` [Compound (105)] was 0.4 wt %; that for `CCCCCCCCCCc1ccc2cc3cc(-c4ccc(C)cc4)ccc3cc2c1` [Compound (107)] was 0.4 wt %. In turn, `CCCCCCc1ccc2cc3cc(-c4ccc(C)cc4)ccc3cc2c1` [Compound (106)] returned a Solubility of compound of 0.8 wt %.

In turn, `CCCCCCCCCc1ccc2cc3cc(-c4ccccc4)ccc3cc2c1` [Compound (104)] displayed a Solubility of compound of 0.7 wt %.

`CCCCCCc1ccc2cc3cc(-c4ccccc4)ccc3cc2c1` [Compound (101)]: the Solubility of compound was found to be 1.3 wt %. The value for `CCCCCCCCc1ccc2cc3cc(-c4ccccc4)ccc3cc2c1` [Compound (103)] was 0.7 wt %; that for `CCCCCCCc1ccc2cc3cc(-c4ccccc4)ccc3cc2c1` [Compound (102)] was 1.1 wt %.

The values are drawn from US11352308B2, “Compound and semiconductor material containing same” (DIC Corporation, priority 2016, dated 2022).
